Columns and labels:
[1] = system: CLas; type: in vivo, Candidatus Liberibacter asiaticus in citrus plants; conditions: after twenty-eight days; soil drench, 10 Brix; p<0.05
[2] = system: CLas; type: in vivo, Candidatus Liberibacter asiaticus in citrus plants; conditions: forty-eight hours after treatment; soil drench
[3] = system: L. crescens; type: cell-based, Liberibacter crescens; conditions: control, at each tested level

Row | SMILES | number of copies of CLas genes, change from the initial value [1] | change in PMA titer (positive = reduction in live bacteria) [2] | inhibition [3] [%]
1 | [H]/N=C(/N)N[C@H]1[C@H](O)[C@@H](O)[C@H](O[C@@H]2O[C@@H](C)[C@](O)(C=O)[C@H]2O[C@@H]2O[C@@H](CO)[C@H](O)[C@@H](O)[C@@H]2NC)[C@@H](N/C(N)=N\[H])[C@@H]1O [Streptomycin] | significant reduction | positive values | –
2 | CN(C)[C@@H]1C(=O)C(C(N)=O)=C(O)[C@@]2(O)C(=O)C3=C(O)c4c(O)cccc4[C@@](C)(O)[C@H]3[C@H](O)[C@@H]12 [Oxytetracyclin] | – | – | 100

Source: US12245597B2 (priority 2017, dated 2025)
